Source: ChEMBL document CHEMBL1125524, “Adenosine A1 antagonists. 2. Structure-activity relationships on diuretic activities and protective effects against acute renal failure” (J Med Chem, 1992)

How the values were obtained:
[1] = target: Adenosine A2 receptor (Rattus norvegicus, UniProt P29276+P30543)
[2] = system: Rattus norvegicus; assay: Percent inhibition of Urea nitrogen by the compound given as ratio of UN value in treated to vehicle treated ones after intraperitoneal administration of 1 mg/kg of compound to rats(vehicle 154+/-7); assay type: functional; conditions: ip
[3] = system: Rattus norvegicus; assay: Urea nitrogen concentration measured after intraperitoneal administration of 1 mg/kg of compound to rats(vehicle 154+/-7); assay type: functional
[4] = system: Rattus norvegicus; assay: Ratio of urinary excretion value (urinary volume) in treated rats to that in control rats, at a peroral dose of 6.25 mg/Kg; assay type: functional, Urine
[5] = target: T1, Adenosine receptor A1 (Cavia porcellus, UniProt P47745)
T1 sequence (P47745 whole entry): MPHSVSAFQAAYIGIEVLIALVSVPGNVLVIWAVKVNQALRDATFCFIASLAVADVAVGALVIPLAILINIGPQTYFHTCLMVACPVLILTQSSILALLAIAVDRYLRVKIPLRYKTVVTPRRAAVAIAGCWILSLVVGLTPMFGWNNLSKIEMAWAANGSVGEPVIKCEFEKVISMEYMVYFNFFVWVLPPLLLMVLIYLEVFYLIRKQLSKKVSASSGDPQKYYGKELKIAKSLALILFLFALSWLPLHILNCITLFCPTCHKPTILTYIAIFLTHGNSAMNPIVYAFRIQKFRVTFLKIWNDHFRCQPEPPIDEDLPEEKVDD
Description: Binding affinity against adenosine A1 receptor in guinea pig forebrain membranes using N6-[3H]cyclohexyladenosine as radioligand

[6] = system: Rattus norvegicus; assay: Percent inhibition of serum creatinine by the compound given as ratio of Cr value in treated to vehicle treated ones after intraperitoneal administration of 1 mg/kg of compound to rats(vehicle 4.91+/-0.10); assay type: functional; conditions: ip
[7] = system: Rattus norvegicus; assay: Serum creatinine concentration measured after intraperitoneal administration of 1 mg/kg of compound to rats(vehicle 4.91+/-0.10); assay type: functional
[8] = system: Rattus norvegicus; assay: Ratio of urinary excretion value (Na+ concentration) in treated rats to that in control rats, at a peroral dose of 6.25 mg/Kg; assay type: functional, Urine
[9] = system: Rattus norvegicus; assay: Oral diuretic activity was measured after oral administration of 0.4 mg/kg to rats(control volume is 1.15+/-0.17); assay type: functional, Urine
[10] = system: Rattus norvegicus; assay: Ratio of sodium ion/potassium ion concentration in treated rats to that in control rats, at a peroral dose of 1.6 mg/Kg; assay type: functional
[11] = system: Rattus norvegicus; assay: Ratio of sodium ion/potassium ion concentration in treated rats to that in control rats, at a peroral dose of 0.4 mg/Kg; assay type: functional
[12] = system: Rattus norvegicus; assay: Percent inhibition of serum creatinine by the compound given as ratio of Cr value in treated to vehicle treated ones after intraperitoneal administration of 1 mg/kg of compound to rats(vehicle 4.82+/-0.24); assay type: functional; conditions: ip
[13] = system: Rattus norvegicus; assay: Oral diuretic activity was measured after oral administration of 1.6 mg/kg to rats(control volume is 0.86+/-0.09); assay type: functional, Urine
[14] = system: Rattus norvegicus; assay: Ratio of urinary excretion value (urinary volume) in treated rats to that in control rats, at a peroral dose of 1.6 mg/Kg; assay type: functional, Urine
[15] = system: Rattus norvegicus; assay: Serum creatinine concentration measured after intraperitoneal administration of 1 mg/kg of compound to rats(vehicle 4.82+/-0.24); assay type: functional
[16] = system: Rattus norvegicus; assay: Effect on urinary excretion potassium and sodium after oral administration of 1.6 mg/kg to rats(potassium and sodium excretion in control rat is 0.174+/-0.013); assay type: functional, Urine
[17] = system: Rattus norvegicus; assay: Percent inhibition of serum creatinine by the compound given as ratio of Cr value in treated to vehicle treated ones after intraperitoneal administration of 1 mg/kg of compound to rats(vehicle 4.74+/-0.31); assay type: functional; conditions: ip
[18] = system: Rattus norvegicus; assay: Serum creatinine concentration measured after intraperitoneal administration of 1 mg/kg of compound to rats(vehicle 4.74+/-0.31); assay type: functional
[19] = system: Rattus norvegicus; assay: Ratio of urinary excretion value (Na+ concentration) in treated rats to that in control rats, at a peroral dose of 0.4 mg/Kg; assay type: functional, Urine
[20] = system: Rattus norvegicus; assay: Ratio of urinary excretion value (urinary volume) in treated rats to that in control rats, at a peroral dose of 0.4 mg/Kg; assay type: functional, Urine
[21] = system: Rattus norvegicus; assay: Urea nitrogen concentration measured after intraperitoneal administration of 1 mg/kg of compound to rats(vehicle 156.2+/-6.1); assay type: functional
[22] = system: Rattus norvegicus; assay: Percent inhibition of Urea nitrogen by the compound given as ratio of UN value in treated to vehicle treated ones after intraperitoneal administration of 1 mg/kg of compound to rats(vehicle 156.2+/-6.1); assay type: functional; conditions: ip
[23] = system: Rattus norvegicus; assay: Ratio of urinary excretion value (Na+ concentration) in treated rats to that in control rats, at a peroral dose of 1.6 mg/Kg; assay type: functional, Urine
[24] = system: Rattus norvegicus; assay: Effect on urinary excretion potassium and sodium after oral administration of 0.4 mg/kg to rats(potassium and sodium excretion in control rat is 0.180+/-0.017); assay type: functional, Urine
[25] = system: Rattus norvegicus; assay: Urea nitrogen concentration measured after intraperitoneal administration of 1 mg/kg of compound to rats(vehicle 138.8+/-7.8); assay type: functional
[26] = system: Rattus norvegicus; assay: Percent inhibition of Urea nitrogen by the compound given as ratio of UN value in treated to vehicle treated ones after intraperitoneal administration of 1 mg/kg of compound to rats(vehicle 138.8+/-7.8); assay type: functional; conditions: ip

CCCn1c(=O)[nH]c(=O)c2[nH]c(C3CCCC3)nc21
Ki [1]: > 100000 nM | inhibition in vivo at 1 mg/kg [2]: 24% | UN [3]: 117 mg/dL | T/C [4]: 1.76 | Ki [5]: 1400 nM | inhibition in vivo at 1 mg/kg [6]: 28% | Cr [7]: 3.51 mg/dL | T/C [8]: 2.07

CCCCn1c(=O)c2nc(C3CCCC3)[nH]c2n(CCCC)c1=O
Urine volume [9]: 1.45 ml 6hr-1 100g-1 | Na+/K+ [10]: 1.32 | Na+/K+ [11]: 1.23 | Ki [1]: 170 nM | inhibition in vivo at 1 mg/kg [12]: 16% | Urine volume [13]: 1.6 ml 6hr-1 100g-1 | T/C [14]: 1.86 | Cr [15]: 4.03 mg/dL | Na [16]: 0.299 m equiv 6hr-1 100g-1 | inhibition in vivo at 1 mg/kg [17]: 42% | Cr [18]: 2.74 mg/dL | Ki [5]: 4.2 nM | T/C [19]: 1.61 | T/C [20]: 1.26 | UN [21]: 153.6 mg/dL | inhibition in vivo at 1 mg/kg [22]: 2% | T/C [23]: 1.72 | Na [24]: 0.309 m equiv 6hr-1 100g-1 | UN [25]: 75 mg/dL | inhibition in vivo at 1 mg/kg [26]: 56%
